Target: T1, MTHFR (methylenetetrahydrofolate reductase) (Thermus thermophilus, UniProt Q5SLG6)
T1 construct: gene TTHA0327
Test: biochemical

T1 sequence (Q5SLG6 1-296): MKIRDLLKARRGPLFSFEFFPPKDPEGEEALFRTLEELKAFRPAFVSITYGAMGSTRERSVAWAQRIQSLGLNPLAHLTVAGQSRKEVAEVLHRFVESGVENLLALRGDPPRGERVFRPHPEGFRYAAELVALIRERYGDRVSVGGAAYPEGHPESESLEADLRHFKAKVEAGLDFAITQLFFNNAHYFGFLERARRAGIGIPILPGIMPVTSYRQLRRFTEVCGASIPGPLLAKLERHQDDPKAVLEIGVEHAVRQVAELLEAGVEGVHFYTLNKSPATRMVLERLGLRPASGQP

Ki: 15 ± 6 µM
Compound: CN1c2c(nc(N)[nH]c2=O)NC[C@@H]1CNc1ccc(C(=O)N[C@@H](CCC(=O)O)C(=O)O)cc1 (mixture of isomers) [(6S)-5-CH3-H4folate]

Source: publication PMC3156243, “Properties and Crystal Structure of Methylenetetrahydrofolate Reductase from Thermus thermophilus HB8” (PLoS ONE, 2011)
